In the experiment the target is T1, catalytic domain of Human PARP (Homo sapiens, UniProt P09874).
T1 construct: The catalytic domain of Human PARP was cloned and prepared; made in house
T1 sequence (P09874 788-1014 limits assumed): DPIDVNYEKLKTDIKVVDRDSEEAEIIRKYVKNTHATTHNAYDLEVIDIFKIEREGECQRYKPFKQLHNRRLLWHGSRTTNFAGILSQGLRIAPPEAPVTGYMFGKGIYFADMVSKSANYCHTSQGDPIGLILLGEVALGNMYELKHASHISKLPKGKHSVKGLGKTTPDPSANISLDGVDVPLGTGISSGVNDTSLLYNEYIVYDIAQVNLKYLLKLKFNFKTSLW
Put plainly: Biacore surface plasmon resonance affinity assay. The class given is binding. Particulars: pKD=-log10 KD, KD in mol/L; Biacore T100, 25° C.; read-out: pKD (converted). An outline of the steps: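 Binding at 25° C on Biacore T100: 1 min compound association then 5 min dissociation (50 μL/min) over immobilized PARP catalytic domain, buffer HBS-P plus 1% DMSO, 0.5 mM TCEP, 5 mM MgCl2, 2-fold dilution series. KD derived as koff/kon from fitted association and dissociation phases.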
Background: Surface plasmon resonance follows binding to a sensor surface in real time, without labels.
On to `CC1Oc2cc(CN3CCN(c4ccccc4O)CC3)ccc2NC1=O` (centres unmarked) [Compound 209, 7-((4-(2-Hydroxyphenyl)piperazin-1-yl)methyl)-2-methyl-2H-benzo[b][1,4]oxazin-3(4H)-one], for which the Kd is 12.6 to 79.4 µM.
With `CC1Oc2ccc(-c3ccc(C(=O)N4CCN(C)CC4)cc3)cc2NC1=O` (centres unmarked) [Compound 154, 2-Methyl-6-(4-(4-methylpiperazine-1-carbonyl)phenyl)-2H-benzo[b][1,4]oxazin-3(4H)-one] the figure was over 10 µM; with `CC1Oc2ccc(CN(C)CC(=O)NCc3ccc(Cl)cc3)cc2NC1=O` (centres unmarked) [Compound 136, N-(4-Chlorobenzyl)-2-(methyl((2-methyl-3-oxo-3,4-dihydro-2H-benzo[b][1,4]oxazin-6-yl)methyl)amino)acetamide], 1.26 to 10 µM; with `CC1Oc2ccc(CN3CCN(Cc4ccccc4)C(=O)C3)cc2NC1=O` (centres unmarked) [Compound 41, 6-((4-Benzyl-3-oxopiperazin-1-yl)methyl)-2-methyl-2H-benzo[b][1,4]oxazin-3(4H)-one], over 1 µM.
Consider `CC1Oc2ccc(CN3CCC(c4ccccc4)CC3)cc2NC1=O` (centres unmarked) [Compound 31, 2-Methyl-6-((4-phenylpiperidin-1-yl)methyl)-2H-benzo[b][1,4]oxazin-3(4H)-one], for which the Kd is 0.0126 to 0.1 µM.
On to `CN(C)C1CCN(Cc2ccc3c(c2)NC(=O)CO3)CC1` [Compound 24, 6-((4-(Dimethylamino)piperidin-1-yl)methyl)-2H-benzo[b][1,4]oxazin-3(4H)-one], for which the Kd was 12.6 to 79.4 µM.
As to `CC1Oc2ccc(CN3CCc4ccccc4C3)cc2NC1=O` (centres unmarked) [Compound 76, 6-((3,4-Dihydroisoquinolin-2(1H)-yl)methyl)-2-methyl-2H-benzo[b][1,4]oxazin-3(4H)-one], the Kd is 0.126 to 1 µM.
On to `CC(=O)Nc1ccc(-c2ccc3c(c2)NC(=O)C(C)O3)cc1` (centres unmarked) [Compound 155, N-(4-(2-Methyl-3-oxo-3,4-dihydro-2H-benzo[b][1,4]oxazin-6-yl)phenyl)acetamide], for which the Kd was over 10 µM.
With `CC(c1ccc2c(c1)NC(=O)CO2)N1CC=C(c2ccc(Cl)cc2)CC1` (centres unmarked) [Compound 56, 6-(1-(4-(4-Chlorophenyl)-5,6-dihydropyridin-1(2H)-yl)ethyl)-2H-benzo[b][1,4]oxazin-3(4H)-one], the Kd was 0.0126 to 0.1 µM.
Consider `O=C1COc2ccc(C(=O)O)cc2N1` [Compound 104, 3-Oxo-3,4-dihydro-2H-benzo[b][1,4]oxazine-6-carboxylic acid], for which the Kd was at least 100 µM.
With `CC1Oc2ccc(CCCO)cc2NC1=O` (centres unmarked) [Compound 188, 6-(3-Hydroxypropyl)-2-methyl-2H-benzo[b][1,4]oxazin-3(4H)-one] the figure was over 10 µM; with `O=C1COc2ccc(C(=O)NCc3ccccc3)cc2N1` [Compound 107, N-Benzyl-3-oxo-3,4-dihydro-2H-benzo[b][1,4]oxazine-6-carboxamide], at least 100 µM.
With `O=C1COc2ccc(C(=O)N3CCOCC3)cc2N1` [Compound 109, 6-(Morpholine-4-carbonyl)-2H-benzo[b][1,4]oxazin-3(4H)-one], the Kd was 1.26 to 10 µM.
The result for `CC1Oc2ccc(-c3cccc(C(=O)O)c3)cc2NC1=O` (centres unmarked) [Compound 141, 3-(2-methyl-3-oxo-3,4-dihydro-2H-benzo[b][1,4]oxazin-6-yl)benzoic acid] reads 1.26 to 10 µM; that for `CC1Oc2cc(CN3CCCC(c4ccccc4)C3)ccc2NC1=O` (centres unmarked) [Compound 95, 2-Methyl-7-((3-phenylpiperidin-1-yl)methyl)-2H-benzo[b][1,4]oxazin-3(4H)-one], 1.26 to 10 µM.
The result for `CCNC(=O)CN1CCN(Cc2ccc3c(c2)NC(=O)C(C)O3)CC1` (centres unmarked) [Compound 178, N-Ethyl-2-(4-((2-methyl-3-oxo-3,4-dihydro-2H-benzo[b][1,4]oxazin-6-yl)methyl)piperazin-1-yl)acetamide] reads over 10 µM; that for `CC1Oc2ccc(CN3CCN(CC(=O)NC4CC4)CC3)cc2NC1=O` (centres unmarked) [Compound 176, N-Cyclopropyl-2-(4-((2-methyl-3-oxo-3,4-dihydro-2H-benzo[b][1,4]oxazin-6-yl)methyl)piperazin-1-yl)acetamide], over 10 µM.
